Assay results from patent publication US20260272888A1, “WOUND TREATMENT COMPOSITION” (OTSUKA PHARMACEUTICAL CO., LTD., priority 2022, published 2026).

Key:
[1] = tested on: human keratinocytes; conditions: NPL 4; cited from earlier work
[2] = tested on: scratch model; conditions: NPL 4; cited from earlier work
[3] = tested on: SD rat; assay: rat corneal epithelial defect (corneal wound) model; format: in vivo; conditions: for wound area healing rate on Day 2: SD rat corneal epithelial defect, 1% ointment to the eye four times a day, n=5; for healing of the corneal defect wound as compared with the vehicle administration group: n=5, t-test (compound A p<0.05; crisaborole n.s.)
Source text: Using a male rat (SD rat), a corneal wound was induced as follows. On the day before the start of the test, rats were grouped using a stratified random sampling method based on the body weight. Under isoflurane anesthesia, each conventional rat was anesthetized with a Benoxil ophthalmic solution to the surface of the eye, and then a nonwoven fabric (3 mm in diameter) with 1-heptanol immersed was placed on the central portion of the cornea and allowed to stand for 30 seconds. Thereafter, the surface of the eye was washed with physiological saline, and the corneal epithelium was scratched with a cotton swab and thus carefully peeled to prepare a corneal defect. A 0.5% methylene blue solution was instilled into the eye, and the corneal epithelial defect portion was washed with physiological saline and then photographed, and then an ointment preparation (base alone, 1% compound A-containing ointment, or 1% crisaborole-containing ointment) as a test substance was administered to the eye four times a day (around 8:00, 11:00, 14:00, and 17:00) for three days. After the day following the preparation of the defect wound, photographing of the defect portion and administration of the test substance were repeated.

[4] = tested on: db/db mice; assay: wound model using diabetic (db/db) mouse, circular defect wounds of the back skin; format: in vivo; conditions: for healing promoting action as compared with the vehicle administration group (area of defect portions): ointment applied to defect wounds once daily for 10 days, compound A groups 1%, 2%, p<0.01 for compound A, N=6; for course of the area of the defect portions (start of healing): ointment once daily for 10 days, compound A 1%, 2% groups, crisaborole increase on second day in the 2% group, vehicle decreased from the fourth day
Protocol: The compound A or crisaborole was administered to db/db mice, which are spontaneously diabetic models, for 10 days, and the influence on wound healing was examined by analyzing the wound area.
Before start of the test, the db/db mice were grouped using the HbA1c blood concentration as an index, and shaved from the back to the abdomen. On the test start day, the back skin was punched using a biopsy punch (φ6 mm) under isoflurane anesthesia, and thus two circular defect wounds were prepared. The defect portions were photographed, and then an ointment preparation (vehicle [30% medium chain fatty acid triglyceride-containing white petrolatum], compound A or crisaborole) as a test substance was applied to the defect portions and covered with a dressing (Tegaderm, 3M). After the day following the preparation of the defect wounds, removal of the dressing, photographing of the defect portions (once every two days), administration of the test substance, and covering with a dressing were repeated (once daily for 10 days).

[5] = tested on: normal human epidermal keratinocyte (NHEK); assay: scratch assay of epidermic cells with compound solution or conditioned medium from skin fibroblasts; format: cell-based; conditions: conditioned medium from normal human dermal fibroblasts cultured 24 hours with compound, 18 hours culture
Protocol: The influence of the compound A on epidermic cells via a skin fibroblast was evaluated. As the epidermic cell and the skin fibroblast used in the evaluation system, a normal human epidermal keratinocyte (NHEK, Kurabo Industries Ltd.) and a normal human dermal fibroblast (NEDF, Kurabo Industries Ltd.) were used. As a reference compound, dexamethasone, which is an anti-inflammatory drug, was used.
Skin fibroblasts (1×10^5 cells/mL) suspended in Dulbecco's Modified Eagle Medium (DMEM) containing 10% (v/v) fetal bovine serum (FBS) were seeded at 1 mL/well in a 12 well plate coated with type I collagen, and cultured for 48 hours. After removal of the culture medium and washing with phosphate buffered saline (PBS), the compound solution was added. As the compound solution, a solution was used that was prepared by mixing dimethyl sulfoxide or a compound (the compound A or dexamethasone) dissolved in dimethyl sulfoxide with a normal human epidermal keratinocyte basal medium (HuMedia-KB2, Kurabo Industries Ltd.) (the final concentration of dimethyl sulfoxide was 0.1% [v/v]). After completion of the culture for 24 hours, the conditioned medium was collected.
Epidermic cells (6×10^5 cells/mL) suspended in HuMedia-KB2 were seeded at 100 μL/well in ImageLock 96-well Plate (Sartorius AG) coated with type I collagen, and cultured for 4 hours. […]

[6] = tested on: SD rat; assay: rat oral ulcer model induced by cauterization; format: in vivo; conditions: for oral ulcer area on Day 8: 1 mass % ointment 0.05 mL twice a day for 5 days from Day 3, Mean±S.E., n=6, vehicle 20.4±2.3 mm^2; for reduction in the oral ulcer area as compared with the vehicle administration group: 1 mass % ointment twice a day for 5 days, Day 8, n=6, t-test (compound A p<0.05; crisaborole n.s.)
Source text: Using a male rat (SD rat), an oral ulcer was initiated by cauterization as follows. That is, conventional rats were anesthetized by isoflurane inhalation anesthesia and then placed on their back, and while the upper jaw and the lower jaw of each rat were opened using a rib retractor to take a view, a monopolar having a tip diameter of […] was applied to the central portion of the left oral mucosa, and the portion was cauterized in a circular shape (diameter: 3 to 4 mm) for about 10 to 20 seconds at a set output of 20 to induce an oral ulcer. After the cauterization, the rat was returned to a breeding cage and naturally awakened.
The day of oral ulcer induction was defined as the start day (Day 0). Two days after the oral ulcer induction (Day 2), the rats were grouped using a stratified random sampling method based on the body weight. From 3 days after the initiation of an oral ulcer by cauterization (Day 3), an ointment preparation containing 1 mass % of a test substance or an ointment base alone was orally administered at a dose of 0.05 mL twice a day (around 8:00 and 16:00) for 5 days. (As the compound A 1%, Moizerto (registered trademark) ointment 1% was used. The crisaborole 1% was prepared using a formula in which Moizerto (registered trademark) ointment 1% as the compound A was replaced by crisaborole.) Specifically, a rat anesthetized by isoflurane inhalation was laid down in a left side position, and the ointment preparation was administered to the left cheek where an ulcer was prepared in a state where the oral cavity was opened using tweezers or a rib retractor.

[7] = tested on: normal human corneal epithelial cell (HCEC-2); assay: scratch assay of corneal epithelial cells with compound solution or conditioned medium from keratocytes; format: cell-based; conditions: HCEC-2 scratch wound, conditioned medium from normal human keratocytes cultured 24 hours with compound, 20 hours culture
Protocol: The influence of the compound A on corneal epithelial cells via a keratocyte was evaluated. As the corneal epithelial cell and the keratocyte used in the evaluation system, a normal human corneal epithelial cell (HCEC-2, Kurabo Industries Ltd.) and a normal human keratocyte (EK, Cosmo Bio Co., Ltd.) were used.
Keratocytes (2×10^5 cells/mL) suspended in a fibroblast culture medium (Fibroblast Medium, Cosmo Bio Co., Ltd.) were seeded at 1 mL/well in a 12 well plate coated with poly-L-lysine, and cultured overnight. After removal of the culture medium and washing with normal human corneal epithelial cell basal medium (OcuLife BM, Kurabo Industries Ltd.), the compound solution was added. As the compound solution, a solution was used that was prepared by mixing dimethyl sulfoxide or the compound A dissolved in dimethyl sulfoxide with OcuLife BM (the final concentration of dimethyl sulfoxide was 0.1% [v/v]). After completion of the culture for 24 hours, the conditioned medium was collected.
Corneal epithelial cells (6×10^5 cells/mL) suspended in OcuLife BM were seeded at 100 μL/well in ImageLock 96-well Plate (Sartorius AG) coated with type I collagen, and cultured for 4 hours. Each well was scratched using a Wound Maker (trademark) tool (Sartorius AG) to prepare an initial scratch wound area in which no cells were present. […]

[8] = SD rat, 1% ointment four times a day

For `CS(=O)(=O)Nc1ccc(C(=O)O[C@@H](Cc2c(Cl)c[n+]([O-])cc2Cl)c2ccc(OC(F)F)c(OCC3CC3)c2)cc1OCC1CC1` [CHF6001], the “growth of human keratinocytes” value [1] is listed as “suppresses growth of human keratinocytes” and the “re-epithelialization in a scratch model after treatment” value [2] is listed as “re-epithelialization is decreased”.
In the case of `CCOc1ccccc1C(=O)NCc1coc(-c2ccc(OC(F)F)c(OC(C)C)c2)n1` [compound A, N-({2-[4-(difluoromethoxy)-3-(propan-2-yloxy)phenyl]-1,3-oxazol-4-yl}methyl)-2-ethoxybenzamide], the “wound area healing rate on Day 2” value [3] was 100%, the “healing of the corneal defect wound as compared with the vehicle administration group” value [3, 8] was “a significant healing promoting action was confirmed” and the “time after preparation of the defect wound from which the defect portion area rapidly decreased” value ([3]; SD rat, 1% ointment four times a day, vehicle apparent healing started on Day 2) was 8 h. For the same molecule, the “healing promoting action as compared with the vehicle administration group (area of defect portions)” value [4] was “a healing promoting action was confirmed”, the “course of the area of the defect portions (start of healing)” value [4] was “rapidly decreased from the second day” and the “migration of the epidermic cells (wound confluence)” value [5] was “promoted migration of the epidermic cells via the skin fibroblasts”. For the same molecule, the “oral ulcer area on Day 8” value [6] was 13.1±1.3 mm^2, the “reduction in the oral ulcer area as compared with the vehicle administration group” value [6] was “significant reduction in the oral ulcer area was observed” and the “migration of the corneal epithelial cells (wound confluence)” value [7] was “promoted migration of the corneal epithelial cells via the keratocytes”.
For `N#Cc1ccc(Oc2ccc3c(c2)COB3O)cc1` [crisaborole, reference compound], the “wound area healing rate on Day 2” value [3] was 81.6%, the “healing of the corneal defect wound as compared with the vehicle administration group” value [3, 8] was “healing was not completed” and the “healing promoting action as compared with the vehicle administration group (area of defect portions)” value [4] was “a significant healing promoting action was not observed”. For the same molecule, the “course of the area of the defect portions (start of healing)” value [4] was “increased on the second day (in the 2% group) and then gradually decreased from the fourth day”, the “oral ulcer area on Day 8” value [6] was 18.3±2.7 mm^2 and the “reduction in the oral ulcer area as compared with the vehicle administration group” value [6] was “significant reduction in the oral ulcer area was not observed”.
